Experimental data taken from patent US20230026232A1, “AHR INHIBITORS AND USES THEREOF” (Ikena Oncology, Inc., priority 2019, published 2023).
Values after ≈ are worked out from the molar mass of the structure shown.

Experiments:
[1] = Solubility of bulk API in biorelevant media by HPLC; assay type: physicochemical; conditions: thermodynamic from solid, up to 24 hours
Description: Solubility of bulk APIs was conducted in various biorelevant media. Small amounts of API were suspended in media and continuously agitated at room temperature for a period up to 24 hours. Samples were centrifuged to pellet out undissolved solids and the resulting supernatant was sampled, diluted, and analyzed by HPLC utilizing the short-assay method sued for dissolution sample analysis. Both forms show poor gastric solubility, with the maleate salt displaying an order of magnitude larger solubility in intestinal media.

[2] = target: T1, AHR (Rattus norvegicus, UniProt P41738); experiment: AHR-dependent Cyp1A1 expression (P450-Glo) in rat H411E hepatoma cells stimulated with L-kynurenine; assay type: cell-based; conditions: 100 μM L-kynurenine, 24 hours
T1 construct: In rat hepatoma H411E cells treated with 100 μM L-kynurenine; endogenous in cells; host or cells: H411E rat hepatoma cells
T1 sequence (P41738 10-853): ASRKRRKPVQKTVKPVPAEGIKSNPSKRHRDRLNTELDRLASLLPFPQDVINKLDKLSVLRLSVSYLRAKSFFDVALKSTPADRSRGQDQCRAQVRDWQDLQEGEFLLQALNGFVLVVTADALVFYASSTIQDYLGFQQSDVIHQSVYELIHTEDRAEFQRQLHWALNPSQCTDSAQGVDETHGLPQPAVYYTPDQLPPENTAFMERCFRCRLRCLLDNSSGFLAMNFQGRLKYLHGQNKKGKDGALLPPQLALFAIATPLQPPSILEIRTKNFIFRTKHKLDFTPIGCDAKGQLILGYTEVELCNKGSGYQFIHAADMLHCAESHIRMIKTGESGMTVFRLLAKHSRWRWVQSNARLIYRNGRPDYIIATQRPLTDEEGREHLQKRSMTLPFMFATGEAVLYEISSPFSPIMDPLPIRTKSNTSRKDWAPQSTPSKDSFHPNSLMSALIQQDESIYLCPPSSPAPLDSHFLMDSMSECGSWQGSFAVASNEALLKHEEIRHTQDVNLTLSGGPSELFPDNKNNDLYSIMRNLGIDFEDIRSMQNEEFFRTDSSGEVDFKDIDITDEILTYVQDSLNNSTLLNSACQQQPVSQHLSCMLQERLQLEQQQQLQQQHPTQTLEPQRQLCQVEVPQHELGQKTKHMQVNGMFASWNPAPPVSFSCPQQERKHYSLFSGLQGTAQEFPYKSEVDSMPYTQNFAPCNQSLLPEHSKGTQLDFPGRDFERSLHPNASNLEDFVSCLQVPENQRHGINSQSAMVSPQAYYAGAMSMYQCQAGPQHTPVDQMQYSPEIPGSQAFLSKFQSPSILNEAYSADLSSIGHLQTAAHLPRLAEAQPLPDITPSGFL
Description: The ability of Compound A to inhibit AHR-dependent Cyp1A1 gene expression was examined in vitro by measuring changes in Cyp1A1 enzymatic activity in 2 rodent hepatoma cell lines following AHR agonist stimulation. Mouse Hepa1.6 and rat H411E hepatoma cells were treated with AHR agonists VAF347 and L-kynurenine, respectively, in the presence of Compound A at multiple concentrations for 24 hours. The inhibition of Cyp1A1 expression was subsequently evaluated by measuring Cyp1A1 enzyme activity using P450-Glo assays.

[3] = Nonclinical safety studies incl. 28-day GLP study in monkeys; assay type: in vivo
Excerpt: The nonclinical safety of Compound A has been evaluated in a series of pharmacological, single-dose and repeated-dose toxicological studies in rodent and non-rodent species including 28-day Good Laboratory Practice (GLP) studies in rat and monkeys. […] All changes were resolved or resolving after 2 weeks of dosing cessation, except for the testicular changes in rats. The nonclinical safety assessment from these studies supports clinical evaluation of Compound A in humans. The initial planned dose of Compound A for this study is 200 mg once daily (QD), based on evaluation of the Compound A nonclinical safety data.
During dose escalation, a minimum of 3 patients are required at each dose. Depending on accrual rate and occurrence of DLTs, 3, 4, 5, or 6 patients may be enrolled at each new dose until the last of those patients completes the 21-day DLT assessment period. Based on the mTPI-2 design, the number of patients who are enrolled at a dose but are not yet fully evaluable for DLT assessment may not exceed the number of remaining patients who are at risk of developing a DLT before the dose would be considered unacceptably toxic. In general, 3 to 14 patients can be enrolled at a given dose level. Administration of Compound A to the first 2 patients in each new dose cohort is staggered by a minimum of 15 hours.

## CC(C)c1cnn2c(N[C@@H]3CCc4[nH]c5ccccc5c4C3)nc(-c3cncc(F)c3)nc12 [Compound A, (R)—N-(2-(5-fluoropyridin-3-yl)-8-isopropylpyrazolo[1,5-a][1,3,5]triazin-4-yl)-2,3,4,9-tetrahydro-1H-carbazol-3-amine]
[1]; simulated gastric fluid, 0.1N HCl, room temperature
  solubility: < 0.5 µg/mL
[1]; FaSSIF, pH 6.8, room temperature
  solubility: 1.4 µg/mL (≈ 3.17 µM)
[2]
  IC50: 151 nM
[3]; monkey
  noteworthy findings in nonclinical safety studies: decreased thymus weights and cortical lymphocytes
[3]; monkey, primates, plasma, read-out: AUC where QTc increases are noted
  AUC: 188 µg·h/mL
[3]; monkey, primates, plasma, read-out: Cmax where QTc increases are noted
  Cmax: 11200 ng/mL
[3]; monkeys
  QTc prolongation: up to 11%
